Experimental data: US9051270B2, “Pyridone amides as modulators of sodium channels” (Vertex Pharmaceuticals Incorporated, priority 2013, dated 2015)

Molecular target: human Nav1.8 (Homo sapiens (Human), UniProt Q9Y5Y9)
Test: E-VIPR optical membrane potential assay with electrical stimulation
Type: cell-based
Settings: HEK cells expressing human Nav1.8

human Nav1.8, sequence (Q9Y5Y9 whole entry): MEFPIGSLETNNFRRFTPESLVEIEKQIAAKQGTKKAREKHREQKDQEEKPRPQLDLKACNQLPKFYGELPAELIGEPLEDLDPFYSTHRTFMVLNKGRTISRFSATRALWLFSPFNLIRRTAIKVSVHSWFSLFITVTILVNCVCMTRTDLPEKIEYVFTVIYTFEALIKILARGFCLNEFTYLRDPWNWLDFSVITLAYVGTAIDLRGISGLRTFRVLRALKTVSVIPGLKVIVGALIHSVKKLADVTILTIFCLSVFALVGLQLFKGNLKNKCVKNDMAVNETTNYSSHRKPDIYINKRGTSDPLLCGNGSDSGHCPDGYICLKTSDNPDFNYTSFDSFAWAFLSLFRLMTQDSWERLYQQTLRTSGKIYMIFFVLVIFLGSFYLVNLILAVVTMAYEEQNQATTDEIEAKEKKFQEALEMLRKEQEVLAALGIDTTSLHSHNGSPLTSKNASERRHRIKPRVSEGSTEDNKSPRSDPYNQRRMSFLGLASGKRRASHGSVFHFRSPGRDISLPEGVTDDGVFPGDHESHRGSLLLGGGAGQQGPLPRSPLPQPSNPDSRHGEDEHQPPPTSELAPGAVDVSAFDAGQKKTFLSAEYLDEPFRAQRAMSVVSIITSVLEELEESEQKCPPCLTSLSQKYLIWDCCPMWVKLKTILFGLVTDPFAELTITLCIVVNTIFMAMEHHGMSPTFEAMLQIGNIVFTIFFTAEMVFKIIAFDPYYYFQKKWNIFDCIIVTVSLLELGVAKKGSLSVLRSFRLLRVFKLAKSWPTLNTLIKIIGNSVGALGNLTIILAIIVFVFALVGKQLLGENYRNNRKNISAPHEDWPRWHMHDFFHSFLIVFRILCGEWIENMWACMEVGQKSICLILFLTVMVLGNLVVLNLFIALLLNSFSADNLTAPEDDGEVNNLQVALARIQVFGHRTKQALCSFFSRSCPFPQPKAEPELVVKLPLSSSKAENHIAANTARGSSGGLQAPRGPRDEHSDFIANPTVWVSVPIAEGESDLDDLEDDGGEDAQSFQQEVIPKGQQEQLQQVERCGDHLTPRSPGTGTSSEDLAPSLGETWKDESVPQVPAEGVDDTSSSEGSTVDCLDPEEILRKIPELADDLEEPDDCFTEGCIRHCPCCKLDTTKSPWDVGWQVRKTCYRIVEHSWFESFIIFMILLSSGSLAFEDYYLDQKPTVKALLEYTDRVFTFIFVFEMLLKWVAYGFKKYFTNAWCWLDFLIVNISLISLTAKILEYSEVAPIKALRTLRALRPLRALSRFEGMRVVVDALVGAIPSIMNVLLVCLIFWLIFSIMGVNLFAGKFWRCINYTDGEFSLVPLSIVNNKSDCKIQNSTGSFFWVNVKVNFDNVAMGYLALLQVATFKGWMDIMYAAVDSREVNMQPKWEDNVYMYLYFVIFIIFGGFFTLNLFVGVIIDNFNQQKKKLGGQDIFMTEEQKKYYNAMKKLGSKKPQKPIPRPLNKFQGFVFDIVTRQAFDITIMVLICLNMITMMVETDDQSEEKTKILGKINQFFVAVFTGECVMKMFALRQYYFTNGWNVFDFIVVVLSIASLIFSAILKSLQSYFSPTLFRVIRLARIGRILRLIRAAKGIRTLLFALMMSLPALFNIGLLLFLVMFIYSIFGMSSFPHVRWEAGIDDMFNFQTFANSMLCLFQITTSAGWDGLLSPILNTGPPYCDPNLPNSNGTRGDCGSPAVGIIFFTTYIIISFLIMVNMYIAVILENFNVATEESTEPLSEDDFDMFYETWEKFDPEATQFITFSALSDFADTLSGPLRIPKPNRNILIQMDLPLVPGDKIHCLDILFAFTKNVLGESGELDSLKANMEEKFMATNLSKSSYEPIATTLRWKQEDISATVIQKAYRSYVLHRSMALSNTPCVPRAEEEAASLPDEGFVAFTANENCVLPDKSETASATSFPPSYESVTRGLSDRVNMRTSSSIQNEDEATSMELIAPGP

Row | SMILES | IC50 [nM]
1 | O=C(Nc1cc[nH]c(=O)c1)c1cc(OC(F)(F)F)ccc1OCCCC(F)(F)F [Compound 139, N-(2-oxo-1,2-dihydropyridin-4-yl)-2-(4,4,4-trifluorobutoxy)-5-(trifluoromethoxy)benzamide] | 3050
2 | O=C(Nc1cc[nH]c(=O)c1)c1c(Oc2ccccc2)cc(C(F)(F)F)cc1C(F)(F)F [Compound 156, N-(2-oxo-1,2-dihydropyridin-4-yl)-2-phenoxy-4,6-bis(trifluoromethyl)benzamide] | 52
3 | Cc1cc(F)ccc1Oc1cc(C(F)(F)F)cc(C(F)(F)F)c1C(=O)Nc1cc[nH]c(=O)c1 [Compound 153, 2-(4-fluoro-2-methylphenoxy)-N-(2-oxo-1,2-dihydropyridin-4-yl)-4,6-bis(trifluoromethyl)benzamide] | 10
4 | COc1ccc(Oc2cc(C(F)(F)F)ccc2C(=O)Nc2cc[nH]c(=O)c2)c(F)c1 [Compound 84, 2-(2-fluoro-4-methoxyphenoxy)-N-(2-oxo-1,2-dihydropyridin-4-yl)-4-(trifluoromethyl)benzamide] | 46
5 | CC1(C)CC1COc1ccc(OC(F)(F)F)cc1C(=O)Nc1cc[nH]c(=O)c1 (stereo not shown) [Compound 140, 2-((2,2-dimethylcyclopropyl)methoxy)-N-(2-oxo-1,2-dihydropyridin-4-yl)-5-(trifluoromethoxy)benzamide] | 15000
6 | O=C(Nc1ccc(=O)[nH]c1)c1ccc(C(F)(F)F)cc1Oc1ccc(F)cc1 [Compound 6, 2-(4-fluorophenoxy)-N-(6-oxo-1,6-dihydropyridin-3-yl)-4-(trifluoromethyl)benzamide] | 245
7 | O=C(Nc1cc[nH]c(=O)c1)c1ccc(C(F)(F)F)cc1OCC1CC1(F)F (stereo not shown) [Compound 126, 2-((2,2-difluorocyclopropyl)methoxy)-N-(2-oxo-1,2-dihydropyridin-4-yl)-4-(trifluoromethyl)benzamide] | 1400
8 | Cc1ccc(Oc2ccc(C(F)(F)F)cc2C(=O)Nc2cc[nH]c(=O)c2)c(F)c1F [Compound 92, 2-(2,3-difluoro-4-methylphenoxy)-N-(2-oxo-1,2-dihydropyridin-4-yl)-5-(trifluoromethyl)benzamide] | 135
9 | Cc1cc(F)ccc1Oc1cc(C#N)ccc1C(=O)Nc1cc[nH]c(=O)c1 [Compound 23, 4-cyano-2-(4-fluoro-2-methylphenoxy)-N-(2-oxo-1,2-dihydropyridin-4-yl)benzamide] | 1500
10 | Cc1cc(F)ccc1Oc1ccc(C(F)(F)F)cc1C(=O)Nc1cc(Cl)[nH]c(=O)c1 [Compound 60, N-(6-chloro-2-oxo-1,2-dihydropyridin-4-yl)-2-(4-fluoro-2-methylphenoxy)-5-(trifluoromethyl)benzamide] | 126
11 | CCCOc1ccccc1Oc1ccc(C(F)(F)F)cc1C(=O)Nc1cc[nH]c(=O)c1 [Compound 62, N-(2-oxo-1,2-dihydropyridin-4-yl)-2-(2-propoxyphenoxy)-5-(trifluoromethyl)benzamide] | 34
12 | COc1cc(F)ccc1Oc1cc(C(F)(F)F)cc(C(F)(F)F)c1C(=O)Nc1cc[nH]c(=O)c1 [Compound 154, 2-(4-fluoro-2-methoxyphenoxy)-N-(2-oxo-1,2-dihydropyridin-4-yl)-4,6-bis(trifluoromethyl)benzamide] | 5
13 | Cn1ccc(NC(=O)c2ccc(C(C)(C)C)cc2Oc2ccc(C(F)(F)F)nc2)cc1=O [Compound 148, 4-(tert-butyl)-N-(1-methyl-2-oxo-1,2-dihydropyridin-4-yl)-2-((6-(trifluoromethyl)pyridin-3-yl)oxy)benzamide] | 450
14 | CC1(COc2cc(C(F)(F)F)ccc2C(=O)Nc2cc[nH]c(=O)c2)CC1 [Compound 119] | 14000
15 | Cc1cc(F)ccc1Oc1cc(C(F)(F)C(F)(F)F)ccc1C(=O)Nc1cc[nH]c(=O)c1 [Compound 112, 2-(4-fluoro-2-methylphenoxy)-N-(2-oxo-1,2-dihydropyridin-4-yl)-4-(perfluoroethyl)benzamide] | 16
16 | O=C(Nc1cc[nH]c(=O)c1)c1cc(Cl)ccc1Oc1ccc(F)cc1F [Compound 69, 5-chloro-2-(2,4-difluorophenoxy)-N-(2-oxo-1,2-dihydropyridin-4-yl)benzamide] | 112

Results, then the compound that gave them:

Row | IC50 [nM] | SMILES
17 | 12 | O=C(Nc1cc[nH]c(=O)c1)c1ccc(C(F)(F)C(F)(F)F)cc1Oc1ccc(F)cc1 [Compound 88, 2-(4-fluorophenoxy)-N-(2-oxo-1,2-dihydropyridin-4-yl)-4-(perfluoroethyl)benzamide]
18 | 330 | COCCOc1ccc(Oc2cc(C(F)(F)F)ccc2C(=O)Nc2cc[nH]c(=O)c2)cc1 [Compound 8, 2-(4-(2-methoxyethoxy)phenoxy)-N-(2-oxo-1,2-dihydropyridin-4-yl)-4-(trifluoromethyl)benzamide]
19 | 106 | Cc1ccc(Oc2cc(C(F)(F)F)ccc2C(=O)Nc2cc[nH]c(=O)c2)cc1 [Compound 12, N-(2-oxo-1,2-dihydropyridin-4-yl)-2-(p-tolyloxy)-4-(trifluoromethyl)benzamide]
20 | 68 | COc1cc(F)ccc1Oc1ccc(OC(F)(F)F)cc1C(=O)Nc1cc[nH]c(=O)c1 [Compound 42, 2-(4-fluoro-2-methoxyphenoxy)-N-(2-oxo-1,2-dihydropyridin-4-yl)-5-(trifluoromethoxy)benzamide]
21 | 390 | O=C(Nc1cc[nH]c(=O)c1)c1cc(F)ccc1Oc1ccc(OCC(F)(F)F)cc1 [Compound 107, 5-fluoro-N-(2-oxo-1,2-dihydropyridin-4-yl)-2-(4-(2,2,2-trifluoroethoxy)phenoxy)benzamide]
22 | 843 | N#Cc1ccc(C(=O)Nc2cc[nH]c(=O)c2)c(Oc2ccc(F)cc2)c1 [Compound 21, 4-cyano-2-(4-fluorophenoxy)-N-(2-oxo-1,2-dihydropyridin-4-yl)benzamide]
23 | 69 | O=C(Nc1cc[nH]c(=O)c1)c1cc(OC(F)(F)F)ccc1Oc1ccc(F)cc1 [Compound 38, 2-(4-fluorophenoxy)-N-(2-oxo-1,2-dihydropyridin-4-yl)-5-(trifluoromethoxy)benzamide]
24 | 58 | O=C(Nc1cc[nH]c(=O)c1)c1cc(C(F)(F)F)ccc1Oc1ccc(F)cc1F [Compound 24, 2-(2,4-difluorophenoxy)-N-(2-oxo-1,2-dihydropyridin-4-yl)-5-(trifluoromethyl)benzamide]
25 | 40 | Cc1cc(F)ccc1Oc1ccc(OC(F)(F)F)cc1C(=O)Nc1cc[nH]c(=O)c1 [Compound 40, 2-(4-fluoro-2-methylphenoxy)-N-(2-oxo-1,2-dihydropyridin-4-yl)-5-(trifluoromethoxy)benzamide]
26 | 101 | Cc1ccccc1Oc1ccc(OC(F)(F)F)cc1C(=O)Nc1cc[nH]c(=O)c1 [Compound 36, N-(2-oxo-1,2-dihydropyridin-4-yl)-2-(o-tolyloxy)-5-(trifluoromethoxy)benzamide]
27 | 39 | O=C(Nc1cc[nH]c(=O)c1)c1ccc(C(F)(F)F)cc1Oc1ccc(F)cc1 [Compound 5, 2-(4-fluorophenoxy)-N-(2-oxo-1,2-dihydropyridin-4-yl)-4-(trifluoromethyl)benzamide]
28 | 6900 | COc1cc(F)cc(Oc2ccc(C(F)(F)F)cc2C(=O)Nc2cc[nH]c(=O)c2)c1 [Compound 57, 2-(3-fluoro-5-methoxyphenoxy)-N-(2-oxo-1,2-dihydropyridin-4-yl)-5-(trifluoromethyl)benzamide]
29 | 205 | O=C(Nc1cc[nH]c(=O)c1)c1cc(C(F)(F)F)ccc1Oc1ccccc1 [Compound 32, N-(2-oxo-1,2-dihydropyridin-4-yl)-2-phenoxy-5-(trifluoromethyl)benzamide]
30 | 69 | O=C(Nc1cc[nH]c(=O)c1)c1cc(Cl)ccc1Oc1ccc(F)cc1 [Compound 67, 5-chloro-2-(4-fluorophenoxy)-N-(2-oxo-1,2-dihydropyridin-4-yl)-benzamide]
31 | 70 | COc1ccc(Oc2ccc(C(F)(F)F)cc2C(=O)Nc2cc[nH]c(=O)c2)c(F)c1 [Compound 55, 2-(2-fluoro-4-methoxyphenoxy)-N-(2-oxo-1,2-dihydropyridin-4-yl)-5-(trifluoromethyl)benzamide]
32 | 69 | Cc1ccc(F)cc1Oc1ccc(C(F)(F)F)cc1C(=O)Nc1cc[nH]c(=O)c1 [Compound 56, 2-(5-fluoro-2-methylphenoxy)-N-(2-oxo-1,2-dihydropyridin-4-yl)-5-(trifluoromethyl)benzamide]
33 | 380 | O=C(Nc1cc[nH]c(=O)c1)c1c(Oc2ccc(F)cc2)cccc1C(F)(F)F [Compound 43, 2-(4-fluorophenoxy)-N-(2-oxo-1,2-dihydropyridin-4-yl)-6-(trifluoromethyl)benzamide]
34 | 350 | O=C(Nc1ccc(=O)[nH]c1)c1cc(C(F)(F)F)ccc1Oc1ccc(F)cc1 [Compound 4, 2-(4-fluorophenoxy)-N-(6-oxo-1,6-dihydropyridin-3-yl)-5-(trifluoromethyl)benzamide]

System: not listed separately
Test: Microsomal stability assay, rat liver microsomes (RLM)
Type: in vitro ADME
Settings: rat liver microsomes 0.5 mg/mL, 1 uM substrate, 2 mM NADPH, 37° C., referenced against time zero control
Protocol: (§1) Microsomal Stability Assay.
(§2) Compounds were incubated at 37° C. and shaken for 30 minutes in a phosphate buffered solution with either rat or human liver microsomes and the cofactor NADPH. A time zero control was similarly prepared, however with NADPH excluded. The final incubation concentrations were 1 uM substrate (0.2% DMSO), 0.5 mg/mL liver microsome, 2 mM NADPH, and 0.1 M phosphate. Reactions were quenched and proteins precipitated with the addition of 2 volume equivalents of ice cold acetonitrile containing an internal standard. Following a centrifugation step, aliquots from the quenched incubations were further diluted with 4 volume equivalents of a 50% aqueous methanol solution and then subjected to LC/MS/MS analysis for quantitation of parent compound. Microsome stability values were calculated as the percent of substrate remaining after 30 minutes referenced against the time zero control.
(§3) Microsomal stability in rat and human liver microsomes were determined for selected compounds of the present invention using the above assay. Table 4 provides the human liver microsomes (“HLM”) and rat liver microsomes (“RLM”) stability data as the percent of compound remaining after 30 minutes referenced against the time zero control.

Row | RLM (% remaining @ 30 minutes) [%] | SMILES
35 | 102 | O=C(Nc1cc[nH]c(=O)c1)c1ccc(C(F)(F)C(F)(F)F)cc1Oc1ccc(F)cc1 [Compound 88, 2-(4-fluorophenoxy)-N-(2-oxo-1,2-dihydropyridin-4-yl)-4-(perfluoroethyl)benzamide]
36 | 86 | COCCOc1ccc(Oc2cc(C(F)(F)F)ccc2C(=O)Nc2cc[nH]c(=O)c2)cc1 [Compound 8, 2-(4-(2-methoxyethoxy)phenoxy)-N-(2-oxo-1,2-dihydropyridin-4-yl)-4-(trifluoromethyl)benzamide]
37 | 82 | Cc1cc(F)ccc1Oc1cc(C(F)(F)F)ccc1C(=O)Nc1cc[nH]c(=O)c1 [Compound 10, 2-(4-fluoro-2-methylphenoxy)-N-(2-oxo-1,2-dihydropyridin-4-yl)-4-(trifluoromethyl)benzamide]

System: not listed separately
Test: Microsomal stability assay, human liver microsomes (HLM)
Type: in vitro ADME
Settings: human liver microsomes 0.5 mg/mL, 1 uM substrate, 2 mM NADPH, 37° C., referenced against time zero control
Protocol: as §1, §2, §3

Row | HLM (% remaining @ 30 minutes) [%] | SMILES
38 | 100 | O=C(Nc1cc[nH]c(=O)c1)c1ccc(C(F)(F)C(F)(F)F)cc1Oc1ccc(F)cc1 [Compound 88, 2-(4-fluorophenoxy)-N-(2-oxo-1,2-dihydropyridin-4-yl)-4-(perfluoroethyl)benzamide]
39 | 90 | COCCOc1ccc(Oc2cc(C(F)(F)F)ccc2C(=O)Nc2cc[nH]c(=O)c2)cc1 [Compound 8, 2-(4-(2-methoxyethoxy)phenoxy)-N-(2-oxo-1,2-dihydropyridin-4-yl)-4-(trifluoromethyl)benzamide]
40 | 93 | Cc1cc(F)ccc1Oc1cc(C(F)(F)F)ccc1C(=O)Nc1cc[nH]c(=O)c1 [Compound 10, 2-(4-fluoro-2-methylphenoxy)-N-(2-oxo-1,2-dihydropyridin-4-yl)-4-(trifluoromethyl)benzamide]
